The source of these data is ChEMBL document CHEMBL1130811, “An enantioselective fluorimetric assay for alcohol dehydrogenases using albumin-catalyzed beta-elimination of umbelliferone” (Bioorg Med Chem Lett, 1998).

Series [1] is described as follows: Specificity constant of the BSA-catalyzed deprotonation of compound at pH 9. Format: ADME, Bos taurus. The settings on record: cattle.
The subject of series [2] is alcohol dehydrogenase (Thermoanaerobacter brockii). Kind of series: Compound was tested for enantioselectivity of alcohol dehydrogenase in thermoanaerobium brockii at a concentration of 5 ug/mL.
Series [3] deals with alcohol dehydrogenase (Lactobacillus kefiri). Nature of the series: Compound was tested for enantioselectivity of alcohol dehydrogenase in lactobacillus kefir at a concentration of 50 ug/mL.
The target of series [4] is Alcohol dehydrogenase (Equus caballus) (UniProt P00327+P00328). Nature of the series: Compound was tested for enantioselectivity of alcohol dehydrogenase in horse liver at a concentration of 10 ug/mL.
Series [5] deals with alcohol dehydrogenase (Saccharomyces cerevisiae). Nature of the series: Compound was tested for enantioselectivity of alcohol dehydrogenase in yeast at a concentration of 100 ug/mL.
Series [6] in a line: Rate constant of the bovine serum albumin catalyzed reaction of the compound. Type of series: ADME, Bos taurus. The settings on record: cattle.
Series [7] is described as follows: Michaelis-Menten kinetics of the bovine serum albumin catalyzed reaction of the compound. The settings on record: cattle. Type of series: ADME, Bos taurus.
Series [8] can be described thus: Half life in presence of 2 mg/mL BSA at pH 8.8. Format: ADME, Bos taurus. The settings on record: cattle, bovine serum albumin solution.
Series [9] in a line: Specificity constant of the bovine serum albumin catalyzed reaction expressed as (kcat/KM)/kuncat. Type of series: ADME, Bos taurus. The settings on record: cattle.

`c1cnoc1` [ISOXAZOLE]: in [1], the “(kcat/KM)/kuncat” value turned out to be 3600000 M⁻¹.

With `C[C@@H](O)CCOc1ccc2ccc(=O)oc2c1`, the Selectivity came out at 6.61e-06 µM/s in [2], 0.000773 µM/s in series [3], 0.00014 µM/s in [4] and 3.31e-06 µM/s in [5].

As for `C[C@H](O)CCOc1ccc2ccc(=O)oc2c1`, the Selectivity in series [2] was found to be 0.00132 µM/s; in [3], 2.67e-05 µM/s; in [4], 0.00246 µM/s; in series [5], 0.000599 µM/s.

By Km is commonly meant the concentration of substrate that gives half-maximal velocity. As usually defined, the half-life is how long it takes for the measured level to halve. For the compound `CC(=O)CCOc1ccc2ccc(=O)oc2c1`, in series [6], the k cat was 0.0078 s⁻¹ and the “k cat/Kuncat” value was 390. In addition, the Km in series [7] turned out to be 150 µM. In addition, the half-life in [8] turned out to be 4 min. Further, the “(kcat/KM)/kuncat” value in [9] was determined as 2600000 M⁻¹.
